Measurements reported in patent US11707474B2, “Methods for treating acute myeloid leukemia and related conditions” (GlycoMimetics, Inc., priority 2018, dated 2023).

Key:
KG1 = assay: Flow cytometry, binding of E-selectin-PE conjugate to KG1 cells; format: cell-based, human; settings: 100 nM
Text: (§1) These findings indicate that hypomethylating agents, including 5-azacytidine, may increase the adhesion of leukemic blasts in the bone marrow and therefore hinder the intended anti-leukemic effect. This could explain a source of chemoresistance, and potential for relapse, in patients treated with hypomethylating agents.

KG1 cells [1] = assay: Systemic KG1 AML model survival; format: in vivo, NSG female mice; settings: 5 mg/kg IP days 7, 10, 13, 16, 19 alone
Method: The potential relevance of these in vitro observations was assessed in NSG female mice with pre-existing disseminated KG1 cells and treated with a compound of Formula (I) (40 mg/kg, IP, QD for 14 days), 5-azacytidine (5 mg/kg, IP, administered on days 7, 10, 13, 16, and 19 (5 doses total)), or the combination of both compounds. Under the conditions of the assay, the median survival time of mice treated with saline alone or a compound of Formula (I) was 69.5 and 69 days, respectively (FIG. 9). Administration of a compound of Formula (I) with 5-azacytidine increased median survival time beyond that obtained with 5-azacytidine treatment alone (>104 days versus 88 days; P=0.014, FIG. 9).

KG1 cells [2] = assay: Static adhesion of KG1 cells to E-selectin coated plates; format: cell-based, human; settings: compared to control treated KG1 cells
Text: as §1

## Nc1ncn([C@@H]2O[C@H](CO)[C@@H](O)[C@H]2O)c(=O)n1 [5-azacytidine, reference compound]
KG1
  increase in cell binding of E-selectin-PE conjugate: 38%
KG1 cells [1]
  median survival time: 88 days
KG1 cells [2]
  increase in static adhesion to E-selectin coated plates: 57%
